Measurements: the supplement of paper PMC10307832

Assays:
Test in all cases: relative viability (nuclei count vs DMSO), 5 days (fraction); higher = more cells survive
IPA-3 + Pemetrexed = compound: C1=CC=C2C(=C1)C=CC(=C2SSC3=C(C=CC4=CC=CC=C43)O)O [IPA-3] + Nc1nc2[nH]cc(CCc3ccc(C(=O)N[C@@H](CCC(=O)O)C(=O)O)cc3)c2c(=O)[nH]1 [Pemetrexed] (partner 0.2 µM)
Summary of the method: (§1)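 Medians of duplicate plates are given as relative viability. That measure is the nuclei count in treated wells divided by the count in vehicle wells. Counts were taken on 4× images of lung cancer cell lines in 1536-well plates, 5 days after pin-tool dosing the day after seeding with one drug alone or a fixed anchor-drug dose plus five library-drug doses (not always all listed) in √10 steps.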

Doramapimod + Bortezomib = compound: Cc1ccc(-n2nc(C(C)(C)C)cc2NC(=O)Nc2ccc(OCCN3CCOCC3)c3ccccc23)cc1 [Doramapimod] + CC(C)C[C@H](NC(=O)[C@H](Cc1ccccc1)NC(=O)c1cnccn1)B(O)O [Bortezomib] (partner 0.002 µM)
Summary of the method: as §1

Doramapimod + Luminespib = compound: Cc1ccc(-n2nc(C(C)(C)C)cc2NC(=O)Nc2ccc(OCCN3CCOCC3)c3ccccc23)cc1 [Doramapimod] + CCNC(=O)c1noc(-c2cc(C(C)C)c(O)cc2O)c1-c1ccc(CN2CCOCC2)cc1 [Luminespib] (partner 0.01 µM)
Summary of the method: as §1

RAF265 + Luminespib = compound: Cn1c(Nc2ccc(C(F)(F)F)cc2)nc2cc(Oc3ccnc(-c4ncc(C(F)(F)F)[nH]4)c3)ccc21 [RAF265] + CCNC(=O)c1noc(-c2cc(C(C)C)c(O)cc2O)c1-c1ccc(CN2CCOCC2)cc1 [Luminespib] (partner 0.01 µM)
Summary of the method: as §1

Cell Line | relative viability (IPA-3 + Pemetrexed; first compound 0.2 µM) | relative viability (IPA-3 + Pemetrexed; first compound 0.6325 µM) | relative viability (IPA-3 + Pemetrexed; first compound 2 µM) | relative viability (IPA-3 + Pemetrexed; first compound 6.325 µM) | relative viability (IPA-3 + Pemetrexed; first compound 20 µM) | relative viability (Doramapimod + Bortezomib; first compound 0.02 µM) | relative viability (Doramapimod + Bortezomib; first compound 0.06325 µM) | relative viability (Doramapimod + Bortezomib; first compound 0.2 µM) | relative viability (Doramapimod + Bortezomib; first compound 0.6325 µM) | relative viability (Doramapimod + Bortezomib; first compound 2 µM) | relative viability (Doramapimod + Luminespib; first compound 0.02 µM) | relative viability (Doramapimod + Luminespib; first compound 0.06325 µM) | relative viability (Doramapimod + Luminespib; first compound 0.2 µM) | relative viability (Doramapimod + Luminespib; first compound 0.6325 µM) | relative viability (Doramapimod + Luminespib; first compound 2 µM) | relative viability (RAF265 + Luminespib; first compound 0.01 µM) | relative viability (RAF265 + Luminespib; first compound 0.03162 µM) | relative viability (RAF265 + Luminespib; first compound 0.1 µM) | relative viability (RAF265 + Luminespib; first compound 0.3162 µM) | relative viability (RAF265 + Luminespib; first compound 1 µM)
NCI-H1563 | 0.807 | 0.797 | 0.792 | 1 | 0.864 | 0.871 | 0.88 | 0.993 | 1.17 | 0.873 | 0.449 | 0.548 | 0.535 | 0.48 | 0.481 | 0.56 | 0.511 | 0.589 | 0.529 | 0.485
NCI-H1650 | 0.346 | 0.39 | 0.398 | 0.364 | 0.466 | 0.232 | 0.23 | 0.194 | 0.191 | 0.189 | 0.186 | 0.171 | 0.195 | 0.176 | 0.209 | 0.176 | 0.208 | 0.192 | 0.205 | 0.216
NCI-H1651 | 0.602 | 0.606 | 0.621 | 0.591 | 0.679 | 0.922 | 0.996 | 0.931 | 0.987 | 0.907 | 0.76 | 0.863 | 0.87 | 0.93 | 0.758 | 1 | 0.812 | 0.971 | 0.807 | 0.714
NCI-H1666 | 0.842 | 0.853 | 0.874 | 0.796 | 0.83 | 0.83 | 0.784 | 0.826 | 0.842 | 0.725 | 1.02 | 1.06 | 1.06 | 1.06 | 1 | 1.11 | 1.01 | 1.1 | 1.05 | 0.977
NCI-H1734 | 0.412 | 0.46 | 0.436 | 0.365 | 0.383 | 0.845 | 0.859 | 0.766 | 0.966 | 0.724 | 0.227 | 0.259 | 0.214 | 0.17 | 0.18 | 0.227 | 0.189 | 0.178 | 0.17 | 0.17
NCI-H1755 | 0.621 | 0.44 | 0.495 | 0.399 | 0.398 | 1.03 | 1 | 0.793 | 0.897 | 0.831 | 0.354 | 0.426 | 0.411 | 0.431 | 0.22 | 0.627 | 0.45 | 0.351 | 0.262 | 0.398
NCI-H1792 | 1.33 | 0.486 | – | 0.587 | 0.737 | 0.946 | 0.952 | 0.948 | 1.05 | 0.831 | 0.396 | 0.345 | 0.385 | 0.413 | 0.356 | 0.46 | 0.528 | 0.379 | 0.317 | 0.148
NCI-H1915 | 0.559 | 0.463 | 0.497 | 0.461 | 0.633 | 0.978 | 1.09 | 1.04 | 1.02 | 0.936 | 0.58 | 0.821 | 0.793 | 0.9 | 0.712 | 0.819 | 0.728 | 0.616 | 0.258 | 0.188
NCI-H1975 | 0.318 | 0.288 | 0.305 | 0.347 | 0.274 | 0.321 | 0.324 | 0.266 | 0.363 | 0.327 | 0.173 | 0.192 | 0.207 | 0.258 | 0.266 | 0.244 | 0.272 | 0.199 | 0.197 | 0.12
NCI-H1993 | 0.652 | 0.602 | 0.57 | 0.531 | 0.516 | 1.3 | 0.993 | 1.03 | 1.53 | 0.97 | 1.85 | 0.87 | 0.64 | 0.975 | 0.744 | 0.852 | 0.75 | 0.9 | 1.42 | 0.774
NCI-H2009 | 1.16 | 0.974 | 1.03 | 0.958 | 1.09 | 1.08 | 1.06 | 1.18 | 0.246 | 0.962 | 1.05 | 1.17 | 1.12 | 1.23 | 1.04 | 1.05 | 0.95 | 0.975 | 1.03 | 0.883
NCI-H2023 | 0.249 | 0.207 | 0.266 | 0.227 | 0.243 | 1 | 0.945 | 0.978 | 0.44 | 0.97 | 0.656 | 0.77 | 0.74 | 0.929 | 0.614 | 0.802 | 0.78 | 0.674 | 0.837 | 0.454
NCI-H2085 | 0.89 | 0.828 | 0.864 | 0.821 | 0.993 | 1.03 | 1 | 0.952 | 1.06 | 0.945 | 0.411 | 0.601 | 0.409 | 0.46 | 0.463 | 0.493 | 0.403 | 0.492 | 0.428 | 0.427
NCI-H2087 | 0.698 | 0.642 | 0.645 | 0.678 | 0.608 | 0.931 | 0.866 | 0.79 | 0.771 | 0.768 | 0.174 | 0.215 | 0.195 | 0.158 | 0.234 | 0.136 | 0.209 | 0.214 | 0.162 | 0.16
NCI-H2126 | 0.726 | 0.706 | 0.721 | 0.678 | 0.712 | 1.2 | 1.14 | 1.11 | 1.16 | 1.07 | 0.832 | 0.906 | 0.964 | 1.03 | 0.702 | 0.918 | 0.87 | 0.908 | 0.628 | 0.654
NCI-H2228 | 0.369 | 0.334 | 0.336 | 0.354 | 0.341 | 0.952 | 0.966 | 1.11 | 1.06 | 0.758 | 0.151 | 0.151 | 0.107 | 0.14 | 0.131 | 0.191 | 0.118 | 0.186 | 0.126 | 0.0971
NCI-H2347 | 0.418 | 0.416 | 0.76 | 0.452 | 0.433 | – | 0.72 | 1.19 | 1.07 | 0.963 | 0.0162 | – | 0.601 | 0.5 | 0.492 | 0.445 | 0.775 | 0.849 | 0.337 | 0.234
NCI-H2405 | 1.19 | 1.07 | 1.11 | 0.998 | 0.962 | 0.98 | 1.03 | 0.984 | 0.712 | 0.961 | 0.639 | 0.591 | 0.794 | 0.885 | 0.522 | 0.638 | 0.812 | 0.722 | 0.476 | 0.548
NCI-H3122 | 0.189 | 0.197 | 0.192 | 0.207 | 0.211 | 1.04 | 0.983 | 0.949 | 1.07 | 0.91 | 0.11 | 0.0996 | 0.108 | 0.0726 | 0.092 | 0.0828 | 0.0692 | 0.0932 | 0.0953 | 0.0538
PC-3 [JPC-3] | 1.12 | 1.23 | 1.18 | 1.03 | 1.03 | 0.909 | 0.926 | 0.832 | 0.939 | 0.943 | 0.736 | 0.656 | 0.694 | 0.768 | 0.671 | 0.667 | 0.654 | 0.713 | – | 0.386
PC-14 | 0.123 | 0.132 | 0.135 | 0.124 | 0.132 | 0.968 | 0.845 | 0.778 | 1.01 | 0.81 | 0.146 | 0.196 | 0.18 | 0.159 | 0.152 | 0.163 | 0.128 | 0.248 | – | 0.139
RERF-LC-KJ | 0.487 | 0.46 | 0.482 | 0.489 | 0.566 | 1.19 | 1.05 | 1.29 | 1.07 | 1.04 | 1.35 | 1.16 | 1.24 | 1.36 | 1.2 | 1.34 | 1.22 | 1.08 | 0.763 | 0.713
SK-LU-1 | 1.16 | 0.938 | 1.01 | 0.926 | 1.14 | 1.41 | 1.37 | 1.51 | – | 1.15 | 0.208 | 0.204 | 0.172 | 0.218 | 0.186 | 0.203 | 0.182 | 0.177 | 0.185 | 0.176
SW 1573 | 0.964 | 0.87 | 0.921 | 0.906 | 0.162 | 0.944 | 0.927 | 0.813 | 0.764 | 0.875 | 0.235 | 0.181 | 0.207 | 0.692 | 0.185 | 0.571 | 0.179 | 0.161 | 0.131 | 0.149
